Measurements as given in patent publication EP2949653A1, “ISOXAZOLE DERIVATIVES AS LEUKOTRIENE BIOSYNTHESIS INHIBITORS” (Banoglu, Erden, priority 2014, dated 2015).
Where two headings read alike, the source gives them in different places.

Experiments:
[1] = test system: 5-LO mediated product formation; assay: 5-LO mediated product formation in intact neutrophils stimulated with A23187 (cell-based); parameters: species or system human; details: for IC50: Neutrophil, intact human neutrophils stimulated with 2.5 µM A23187, mean ± SE, n = 3-4, read-out: Inhibition of purified 5-LO activity IC50 (µM) cell based; for activity at 1 µM / activity at 10 µM: PMNL, human neutrophils, 2.5 µM A23187, means ± SE, n = 3-6; for activity at 1 µM: remaining activity at 1 µM inhibitor, read-out: 5-LO mediated product formation in intact neutrophils (PMNL) (% of control) at 1 µM; for activity at 10 µM: remaining activity at 10 µM inhibitor, read-out: 5-LO mediated product formation in intact neutrophils (PMNL) (% of control) at 10 µM
Experimental: (§1) Cell based and cell-free assays carried out in biological studies, immunofluorescence microscopy analysis and zymosan-induced peritonitis in mice are performed as described hereinabove (Pegola, C. and et al., British J. Pharmacology, 2014, D01:10.1111/bph.12625). In the cell based assays (intact neutrophils or monocytes), 5-LO mediated product formation is started, after pre-incubation with test compounds (or control DMSO) for 15 min. at 37 °C, with addition of Ca-ionophore A23187 (2.5 µM) to the fresh 5 x 10^6 neutrophils or monocytes suspended in 1 ml of PGC buffer (phosphate buffered saline (PBS) solution containing 1 mg ml^-1 glucose and 1mM CaCl2, pH 7.4). After the incubation for 10 min. at 37 °C, the reaction is ended with addition of 1 ml of methanol, and 30 µL 1 N HCl, 200 ng prostaglandin B1 and 500 µL PBS are added to the mixture. In cell-free assays (isolated 5-LO and cell homogenates), human recombinant 5-LO protein or 40,000g supernatant is added to 1 ml of 5-LO reaction mixture (PBS, pH 7.4, 1 mM EDTA, 1 mM ATP), and then incubated with test compounds (or control DMSO) for 10 min. at 4°C, heated to 37 °C and 2 mM CaCl2 as well as AA at certain concentrations are added. The reaction is ended as described for the cell-based assays. Resulting 5-LO mediated products are extracted and analysed by the known method of high pressure liquid chromatography (HPLC) (Pergola, C. Proc Natl. Acad. Sci. U.S.A. 2008, 105, 19881). 5-LO mediated product formation (LTB4 and all trans isomers, and 5 (S)-hydro(pero)xy-6-trans-8, 11, 14-cis-eicosatetraenoic acid, 5-H(p)ETE) is expressed as ng per 10^6 cell. Cysteinyl-LTs have not been analyzed because that the amount of C4, D4 and E4 and LTB4 oxidation products are below the detection limit.
(§2) Compounds were tested in intact human neutrophils stimulated with 2.5 µM A23187 under cell based conditions and on purified 5-LO under cell free conditions. ^aData are given as remaining activity as a percentage of control (100%) at 10 µM or 1 µM inhibitor concentrations (means ± SE, n = 3-6).
Compound 9hj inhibited 5-LO mediated product formation with IC50 of 60 nM in human neutrophils. Neutrophils are stimulated with Ca-ionophore A23187 (2.5 µM), without the addition of exogenous arachidonic acid (AA), after pre-incubation with 9hj or vehicle (0.1 % DMSO). 100% controls correspond to 275.7 ng mL^-1 of 5-LO mediated products (Figure 1).
100% controls correspond to 328.97 ng mL^-1 of 5-LO mediated products.

purified 5-LO [2] = target: T1, purified 5-LO (Homo sapiens, UniProt P09917); assay: Purified / human recombinant 5-LO activity (cell-free); type: biochemical; details: purified 5-LO under cell free conditions; mean ± SE, n = 3-4; read-out: Inhibition of purified 5-LO activity IC50 (µM) cell-free
T1 sequence (P09917 1-674): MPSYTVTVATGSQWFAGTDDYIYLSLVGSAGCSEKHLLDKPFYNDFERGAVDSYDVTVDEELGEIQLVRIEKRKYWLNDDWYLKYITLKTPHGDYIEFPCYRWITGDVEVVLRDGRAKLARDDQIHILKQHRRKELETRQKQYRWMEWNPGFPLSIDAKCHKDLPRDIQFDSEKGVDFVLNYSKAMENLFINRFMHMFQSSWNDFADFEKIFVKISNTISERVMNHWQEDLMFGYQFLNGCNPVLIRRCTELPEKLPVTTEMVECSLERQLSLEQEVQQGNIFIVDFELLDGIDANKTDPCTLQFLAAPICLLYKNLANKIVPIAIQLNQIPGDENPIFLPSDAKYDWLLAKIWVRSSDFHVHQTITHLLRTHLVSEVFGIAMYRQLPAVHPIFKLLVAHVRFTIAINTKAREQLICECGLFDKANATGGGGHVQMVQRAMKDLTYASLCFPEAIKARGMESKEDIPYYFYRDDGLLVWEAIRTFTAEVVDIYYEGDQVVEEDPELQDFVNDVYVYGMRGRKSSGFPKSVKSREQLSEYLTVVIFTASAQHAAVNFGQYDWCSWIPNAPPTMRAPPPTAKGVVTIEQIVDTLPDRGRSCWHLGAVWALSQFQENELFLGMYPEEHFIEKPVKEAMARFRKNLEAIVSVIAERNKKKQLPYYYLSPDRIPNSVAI
Experimental: as §1, §2
9hj was added 15 min before addition of 2 mM Ca^2+ plus 3 µM, 10 µM and 30 µM AA. 100% controls correspond to 200.35 ng mL^-1 for 3 µM AA, 514.36 ng mL^-1 for 10 µM AA and 537.73 ng mL^-1 for 30 µM AA.

purified 5-LO [3] = target: T1, purified 5-LO; assay: as above; type: biochemical; details: remaining 5-LO activity (percentage of uninhibited control) at 30 µM test compound
[4] = test system: 5-LO mediated product formation; details: literature value, Banoglu et al. Bioorg. Med. Chem. 2012, 20, 3728; read-out: IC50PMNL (cell-based assay); cited from earlier work
purified 5-LO [5] = target: T1, purified 5-LO; details: literature value, Banoglu et al. Bioorg. Med. Chem. 2012, 20, 3728; read-out: IC50cell-free; cited from earlier work

| SMILES | IC50 [1] [µM] | activity at 1 µM [1] [%] | activity at 10 µM [1] [%] | IC50 (purified 5-LO [2]) [µM] | remaining activity at 30 µM (purified 5-LO [3]) [%] | IC50 [4] [µM] | IC50 (purified 5-LO [5]) [nM] |
| --- | --- | --- | --- | --- | --- | --- | --- |
| Cc1cc(OCc2ccccn2)ccc1-c1onc(C(=O)O)c1-c1ccc(Cl)cc1 [Compound 9gk, 4-(4-Chlorophenyl)-5-(2-methyl-4-(pyridin-2-ylmethoxy)phenyl)isoxazole-3-carboxylic acid] | 1.81 ± 0.11 | 73.2 ± 7.42 | 0.45 ± 0.45 | > 30 | 73 | – | – |
| Cc1cc(OCc2ccc3ccccc3n2)ccc1-c1onc(C(=O)O)c1-c1ccc(Cl)cc1 [Compound 9hk, 4-(4-Chlorophenyl)-5-(2-methyl-4-(quinolin-2-ylmethoxy)phenyl)isoxazole-3-carboxylic acid] | 9.07 ± 1.98 | 69.1 ± 5.53 | 44.2 ± 15.7 | > 30 | 75 | – | – |
| Cc1ccccc1COc1ccc(-c2onc(C)c2-c2ccc(Cl)cc2)c(O)c1 [Compound A, reference compound] | 4.42 ± 1.13 | 66.7 ± 11.5 | 3 ± 0.7 | 1.9 ± 0.46 | – | 4.4 | 1900 |
